This is an account of results in patent US8173645B2 (Takeda San Diego, Inc., priority 2007, dated 2012).

The target in the experiment is T1, glucokinase (GK), residues 12-465 of the human enzyme (Homo sapiens, UniProt P35557).
T1 construct: I.D. No. 1 corresponds to residues 12-465 of glucokinase; made in house; host or cells: E. coli DH10b-Tlr
T1 sequence (P35557 with tags, fused parts or gaps isoform P35557-2): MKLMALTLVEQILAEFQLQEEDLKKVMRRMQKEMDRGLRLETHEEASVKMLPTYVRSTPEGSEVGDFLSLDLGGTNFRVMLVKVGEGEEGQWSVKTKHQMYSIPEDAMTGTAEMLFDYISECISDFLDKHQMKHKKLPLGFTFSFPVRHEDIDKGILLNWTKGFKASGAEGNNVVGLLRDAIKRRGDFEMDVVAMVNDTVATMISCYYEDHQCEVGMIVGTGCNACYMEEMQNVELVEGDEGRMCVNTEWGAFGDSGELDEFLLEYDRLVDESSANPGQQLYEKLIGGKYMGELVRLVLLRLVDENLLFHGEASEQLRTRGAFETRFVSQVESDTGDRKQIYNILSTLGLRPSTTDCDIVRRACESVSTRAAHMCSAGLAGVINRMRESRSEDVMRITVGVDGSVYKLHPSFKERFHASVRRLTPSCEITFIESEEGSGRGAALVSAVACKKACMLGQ
Kind of experiment: Enzymatic glucokinase activity assay (KinaseGlo luminescence, ATP consumption). The conditions noted are these: 5 μM ATP, 5 mM Glucose; for EC50: GK activation, Kact = concentration giving 50% of the maximal increase in GK activity, read-out: pKact; for Emax: calculated maximal gain in GK enzyme activity at a saturating concentration of the compound, read-out: % ACTmax. The experiment is classed as biochemical. Summed up:
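Activation measured as ATP consumption: residual ATP detected by KinaseGlo luminescence after 60 min at room temperature with 5 μM ATP and 5 mM glucose (Hepes pH 7.2, MgCl2, Brij35, DTT, 2% DMSO). Enzyme was recombinant FLAG-tagged protein from E. coli. Eleven-point twofold series were fitted nonlinearly for pKact and % ACTmax.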

For the compound `O=C(Nc1nccs1)[C@H](CC1CCCCC1)N1CCN(C(=S)Nc2cccc(Cl)c2)CC1=O` [Example 81, (S)-2-(4-(3-chlorophenylcarbamothioyl)-2-oxopiperazin-1-yl)-3-cyclohexyl-N-(thiazol-2-yl)propanamide], the EC50 is 1580 to 2510 nM and the Emax is 97.1 to 107%.

With `O=C(Nc1nccs1)[C@H](CC1CCCCC1)N1CCN(C(=S)NCc2ccccc2)CC1=O` [Example 82, (S)-2-(4-(benzylcarbamothioyl)-2-oxopiperazin-1-yl)-3-cyclohexyl-N-(thiazol-2-yl)propanamide], the EC50 was 1580 to 2510 nM and the Emax is 108 to 119%.

Turning to `O=C(Nc1nccs1)[C@H](CC1CCCCC1)N1CCN(C(=S)Nc2ccc(F)cc2)CC1=O` [Example 83, (S)-3-cyclohexyl-2-(4-(4-fluorophenylcarbamothioyl)-2-oxopiperazin-1-yl)N-(thiazol-2-yl)propanamide], the EC50 was ≥ 3160 nM and the Emax was 108 to 119%.

`O=C(Nc1nccs1)[C@H](CC1CCCCC1)N1CCN(C(=S)Nc2cccc(C(F)(F)F)c2)CC1=O` [Example 84, (S)-3-cyclohexyl-2-(2-oxo-4-(3-(trifluoromethyl)phenylcarbamothioyl)piperazin-1-yl)-N-(thiazol-2-yl)propanamide]: the EC50 was ≥ 3160 nM and the Emax is 97.1 to 107%.

`O=C(Nc1nccs1)[C@H](CC1CCCCC1)N1CCN(C(=S)Nc2ccc(C(F)(F)F)cc2)CC1=O` [Example 85, (S)-3-cyclohexyl-2-(2-oxo-4-(4-(trifluoromethyl)phenylcarbamothioyl)piperazin-1-yl)-N-(thiazol-2-yl)propanamide]: the EC50 was ≥ 3160 nM and the Emax was ≤ 74%.

`COc1ccc(NC(=S)N2CCN([C@@H](CC3CCCCC3)C(=O)Nc3nccs3)C(=O)C2)cc1` [Example 86, (S)-3-cyclohexyl-2-(4-(4-methoxyphenylcarbamothioyl)-2-oxopiperazin-1-yl)-N-(thiazol-2-yl)propanamide]: the EC50 is ≥ 3160 nM and the Emax was 97.1 to 107%.

Turning to `O=C(Nc1nccs1)[C@H](CC1CCCCC1)N1CCN(C(=S)Nc2ccc(Cl)c(Cl)c2)CC1=O` [Example 87, (S)-3-cyclohexyl-2-(4-(3,4-dichlorophenylcarbamothioyl)-2-oxopiperazin-1-yl)-N-(thiazol-2-yl)propanamide], the EC50 was ≥ 3160 nM and the Emax was 74.1 to 97%.

Turning to `COc1ccc(S(=O)(=O)N2CCN([C@@H](CC3CCCCC3)C(=O)Nc3nccs3)C(=O)C2)cc1OC` [Example 88, (S)-3-cyclohexyl-2-(4-(3,4-dimethoxyphenylsulfonyl)-2-oxopiperazin-1-yl)-N-(thiazol-2-yl)propanamide], the EC50 was ≥ 3160 nM and the Emax was 97.1 to 107%.

Regarding `O=C(Nc1nccs1)[C@H](CC1CCCCC1)N1CCN(S(=O)(=O)c2ccc(F)cc2)CC1=O` [Example 89, (S)-3-cyclohexyl-2-(4-(4-fluorophenylsulfonyl)-2-oxopiperazin-1-yl)-N-(thiazol-2-yl)propanamide], the EC50 lay in the range of 794 to 1260 nM and the Emax is 97.1 to 107%.

Consider `O=C(Nc1nccs1)[C@H](CC1CCCCC1)N1CCN(S(=O)(=O)c2ccc(Cl)c(Cl)c2)CC1=O` [Example 90, (S)-3-cyclohexyl-2-(4-(3,4-dichlorophenylsulfonyl)-2-oxopiperazin-1-yl)-N-(thiazol-2-yl)propanamide], for which the EC50 is 794 to 1260 nM and the Emax is ≤ 74%.

As for `O=C(O)c1ccc(S(=O)(=O)N2CCN([C@@H](CC3CCCCC3)C(=O)Nc3nccs3)C(=O)C2)cc1` [Example 91, (S)-4-(4-(3-cyclohexyl-1-oxo-1-(thiazol-2-ylamino)propan-2-yl)-3-oxopiperazin-1-ylsulfonyl)benzoic acid], the EC50 was ≥ 3160 nM and the Emax was ≤ 74%.

For `COc1cccc(S(=O)(=O)N2CCN([C@@H](CC3CCCCC3)C(=O)Nc3nccs3)C(=O)C2)c1` [Example 92, (S)-3-cyclohexyl-2-(4-(3-methoxyphenylsulfonyl)-2-oxopiperazin-1-yl)-N-(thiazol-2-yl)propanamide], the EC50 is 794 to 1260 nM and the Emax is ≥ 119%.

Turning to `O=C(Nc1nccs1)[C@H](CC1CCCCC1)N1CCN(S(=O)(=O)CC(F)(F)F)CC1=O` [Example 93, (S)-3-cyclohexyl-2-(2-oxo-4-(2,2,2-trifluoroethylsulfonyl)piperazin-1-yl)-N-(thiazol-2-yl)propanamide], the EC50 lay within 1580 to 2510 nM and the Emax is ≥ 119%.

Turning to `Cc1ccc(S(=O)(=O)N2CCN([C@@H](CC3CCCCC3)C(=O)Nc3nccs3)C(=O)C2)cc1Cl` [Example 94, (S)-2-(4-(3-chloro-4-methylphenylsulfonyl)-2-oxopiperazin-1-yl)-3-cyclohexyl-N-(thiazol-2-yl)propanamide], the EC50 lay in the range of 794 to 1260 nM and the Emax is 108 to 119%.

As for `COc1ccc(C)cc1S(=O)(=O)N1CCN([C@@H](CC2CCCCC2)C(=O)Nc2nccs2)C(=O)C1` [Example 95, (S)-3-cyclohexyl-2-(4-(2-methoxy-5-methylphenylsulfonyl)-2-oxopiperazin-1-yl)-N-(thiazol-2-yl)propanamide], the EC50 was 794 to 1260 nM and the Emax is ≥ 119%.

Take `O=C(Nc1nccs1)[C@H](CC1CCCCC1)N1CCN(S(=O)(=O)C2CC2)CC1=O` [Example 96, (S)-3-cyclohexyl-2-(4-(cyclopropylsulfonyl)-2-oxopiperazin-1-yl)-N-(thiazol-2-yl)propanamide]: the EC50 is 794 to 1260 nM and the Emax was 108 to 119%.

As to `O=C(Nc1nccs1)[C@H](CC1CCCCC1)N1CCN(S(=O)(=O)c2ccc3ncsc3c2)CC1=O` [Example 97, (S)-2-(4-(benzo[d]thiazol-6-ylsulfonyl)-2-oxopiperazin-1-yl)-3-cyclohexyl-N-(thiazol-2-yl)propanamide], the EC50 fell in the range of 794 to 1260 nM and the Emax is 97.1 to 107%.

Consider `O=C(Nc1nccs1)[C@H](CC1CCCCC1)N1CCN(S(=O)(=O)CCc2ccc(Cl)cc2)CC1=O` [Example 98, (S)-2-(4-(4-chlorophenethylsulfonyl)-2-oxopiperazin-1-yl)-3-cyclohexyl-N-(thiazol-2-yl)propanamide], for which the EC50 fell in the range of 794 to 1260 nM and the Emax is ≤ 74%.

On to `COc1ccc(S(=O)(=O)N2CCN([C@@H](CC3CCCCC3)C(=O)Nc3nccs3)C(=O)C2)cc1F` [Example 99, (S)-3-cyclohexyl-2-(4-(3-fluoro-4-methoxyphenylsulfonyl)-2-oxopiperazin-1-yl)-N-(thiazol-2-yl)propanamide], for which the EC50 was in the range of 794 to 1260 nM and the Emax was 108 to 119%.

With `O=C(Nc1nccs1)[C@H](CC1CCCCC1)N1CCN(S(=O)(=O)CCC(F)(F)F)CC1=O` [Example 100, (S)-3-cyclohexyl-2-(2-oxo-4-(3,3,3-trifluoropropylsulfonyl)piperazin-1-yl)-N-(thiazol-2-yl)propanamide], the EC50 was in the range of 794 to 1260 nM and the Emax is ≥ 119%.

In the case of `CC(C)Oc1ccc(S(=O)(=O)N2CCN([C@@H](CC3CCCCC3)C(=O)Nc3nccs3)C(=O)C2)cc1` [Example 101, (S)-3-cyclohexyl-2-(4-(4-isopropoxyphenylsulfonyl)-2-oxopiperazin-1-yl)-N-(thiazol-2-yl)propanamide], the EC50 is ≤ 631 nM and the Emax was ≤ 74%.

Regarding `O=C(Nc1nccs1)[C@H](CC1CCCCC1)N1CCN(S(=O)(=O)c2ccc3c(c2)CCO3)CC1=O` [Example 102, (S)-3-cyclohexyl-2-(4-(2,3-dihydrobenzofuran-5-ylsulfonyl)-2-oxopiperazin-1-yl)-N-(thiazol-2-yl)propanamide], the EC50 is 794 to 1260 nM and the Emax is 74.1 to 97%.

With `O=C(Nc1nccs1)[C@H](CC1CCCCC1)N1CCN(S(=O)(=O)c2ccc(F)c(F)c2)CC1=O` [Example 103, (S)-3-cyclohexyl-2-(4-(3,4-difluorophenylsulfonyl)-2-oxopiperazin-1-yl)-N-(thiazol-2-yl)propanamide], the EC50 was ≤ 631 nM and the Emax is 108 to 119%.

As to `O=C(Nc1nccs1)[C@H](CC1CCCCC1)N1CCN(S(=O)(=O)c2cc3ccccc3s2)CC1=O` [Example 104, (S)-2-(4-(benzo[b]thiophen-2-ylsulfonyl)-2-oxopiperazin-1-yl)-3-cyclohexyl-N-(thiazol-2-yl)propanamide], the EC50 was ≤ 631 nM and the Emax is 74.1 to 97%.

As to `O=C(Nc1nccs1)[C@H](CC1CCCCC1)N1CCN(S(=O)(=O)c2cc(F)cc(F)c2)CC1=O` [Example 105, (S)-3-cyclohexyl-2-(4-(3,5-difluorophenylsulfonyl)-2-oxopiperazin-1-yl)-N-(thiazol-2-yl)propanamide], the EC50 was ≤ 631 nM and the Emax was 97.1 to 107%.

On to `O=C(Nc1nccs1)[C@H](CC1CCCCC1)N1CCN(S(=O)(=O)c2cccc(OC(F)F)c2)CC1=O` [Example 106, (S)-3-cyclohexyl-2-(4-(3-(difluoromethoxy)phenylsulfonyl)-2-oxopiperazin-1-yl)-N-(thiazol-2-yl)propanamide], for which the EC50 fell in the range of 794 to 1260 nM and the Emax was 108 to 119%.
